Laboratory results taken from PubChem BioAssay (NCI).
Several values for one entry are separate records, joined by “and”; a condition that tells them apart may be missing. Equal values may be shown once.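 All cell lines were grown in 96-well plates and treated with compound for 48 hours. GI50 is the concentration that inhibits growth by half. At the TGI there is no net growth.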

How the values were obtained:
Experiment in all cases: inhibition of tumour cell growth, NCI panel, 48 h
[1] = system: SF-539 CNS
[2] = system: A549 NSCLC
[3] = system: NCI-H522 lung
[4] = system: NCI-H23 lung
[5] = system: UACC-62 melanoma
[6] = system: SK-OV-3 ovarian
[7] = system: SW-620 colon
[8] = system: DU-145 prostate
[9] = system: MCF7 breast
[10] = system: HT29 colon

SMILES	GI50 [1]	TGI [1]	GI50 [2]	TGI [2] [µM]	GI50 [3]	TGI [3]	GI50 [4]	TGI [4]	GI50 [5]	TGI [5]	GI50 [6]	TGI [6] [µM]	GI50 [7]	TGI [7]	GI50 [8]	TGI [8]	GI50 [9]	TGI [9]	GI50 [10]	TGI [10]
CC(=O)OC1C(C)OC(Oc2c(-c3ccc(O)cc3)oc3cc(O)cc(O)c3c2=O)C(O)C1OC(C)=O (stereo not drawn)	29.1 µM	> 100 µM	49.8 µM	> 100	18.5 µM	47.4 µM	26.4 µM	> 80.7 µM	21.4 µM	> 60.5 µM	56.4 µM	> 100	35.8 µM	> 100 µM	31.7 µM	> 94.1 µM	28.3 µM	> 100 µM	31.4 µM	> 91.3 µM
Nc1ncnc2occ(-c3ccc(NC(=O)Nc4cccc(C(F)(F)F)c4)cc3)c12	0.702 µM	7.1 µM	4.73 µM	14.9	4.18 µM	8.92 µM	4.1 µM	13.3 µM	3.02 µM	6.54 µM	4.91 µM	17.9	6.77 µM	20.2 µM	4.82 µM	16.1 µM	2.34 µM	19.3 µM	3.12 µM	10.6 µM
O=C(Nc1ccc(Br)cc1)c1cc(Br)ccc1O	0.647 µM and 0.7 µM	13 µM and 10.1 µM	1.09 µM and 2.5 µM	> 100	0.263 µM and 0.854 µM	4.81 µM and 22.2 µM	0.345 µM and 0.467 µM	2.06 µM and 4.34 µM	0.235 µM and 0.371 µM	1.07 µM and 2.25 µM	0.747 µM and 1.8 µM	–	0.986 µM and 2 µM	8.61 µM and 6.87 µM	0.539 µM and 2.03 µM	> 47 µM and 14.1 µM	0.412 µM and 1.29 µM	3.37 µM and 7.8 µM	3.11 µM and 3.38 µM	16 µM and 39 µM
Nc1ncnc2c1ncn2C1OC(F)(COS(N)(=O)=O)C(O)C1O (stereo not drawn)	> 100 µM	> 100 µM	> 100 µM	> 100	> 100 µM	> 100 µM	> 100 µM	> 100 µM	> 100 µM	> 100 µM	> 100 µM	> 100	> 100 µM	> 100 µM	> 100 µM	> 100 µM	> 100 µM	> 100 µM	> 100 µM	> 100 µM
CN(C)Cc1nsc(N(C)C)n1	–	> 100 µM	–	> 100	–	> 100 µM	–	> 100 µM	–	> 100 µM	–	> 100	–	> 100 µM	–	> 100 µM	–	> 100 µM	–	> 100 µM
COc1cccc2c1C(=O)c1c(O)c3c(c(O)c1C2=O)C[C@@](O)(C(=O)CO)C[C@@H]3OC1CC2C(OCN2CN2COC3C(C)OC(O[C@H]4C[C@](O)(C(=O)CO)Cc5c(O)c6c(c(O)c54)C(=O)c4c(OC)cccc4C6=O)CC32)C(C)O1 (stereo partly drawn)	0.0112 µM	0.0638 µM	0.0056 µM	–	0.00638 µM	0.0238 µM	0.00477 µM	0.0316 µM	0.0032 µM	0.0159 µM	0.00699 µM	0.0207	0.00577 µM	> 1 µM	0.00312 µM	> 1 µM	0.00264 µM	0.12 µM	0.00717 µM	0.115 µM
CC12CC(Br)(Br)C(=O)C3C1CCCC32	–	23 µM	–	36.5	–	7.84 µM	–	16.3 µM	–	19.7 µM	–	30.8	–	5.22 µM	–	25.1 µM	–	11.2 µM	–	24.2 µM
